Data: patent US8247211B2, “Glycopeptide antibiotics” (American Cyanamid Company, priority 2001, dated 2012)
Converted amounts (≈) assume the structure as drawn.

What was measured:
Assay in all cases: In vitro antibacterial evaluation: minimum inhibitory concentration (MIC), broth dilution method
Type in all cases: cell-based
Conditions in all cases: 18 hours at 35° C.
[1] = test system: Staphylococcus sp.
Procedure, shortened: (§1)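 Inoculum: 5×10^5 CFU/mL. Range: 64-0.06 μg/mL. Medium: Muller-Hinton II […]; NCCLS M7-A2 broth dilution. Endpoint: lowest concentration inhibiting growth. Strains include methicillin-, penicillin- and/or vancomycin-resistant clinical isolates.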

[2] = test system: Streptococcus sp.
Procedure, shortened: as §1

[3] = test system: Enterococcus sp.
Procedure, shortened: as §1

[4] = test system: Escherichia coli
Procedure, shortened: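 Values are minimum inhibitory concentrations, meaning the smallest antibiotic concentration that stops growth of the organism. They come from broth dilution in Muller-Hinton II […] per NCCLS guidance (M7-A2), using 5×10^5 CFU/mL and concentrations from 64 to 0.06 μg/mL.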

MIC Coagulase Negative Staphylococcus (GC 4547) ([1]; Coagulase Negative Staphylococcus (GC 4547)): 8 µg/mL (≈ 5.68 µM)
MIC Coagulase Negative Staphylococcus (GC 4548) ([1]; Coagulase Negative Staphylococcus (GC 4548)): 8 µg/mL (≈ 5.68 µM)
MIC Coagulase Negative Staphylococcus (GC 4549) ([1]; Coagulase Negative Staphylococcus (GC 4549)): 4 µg/mL (≈ 2.84 µM)
MIC Coagulase Negative Staphylococcus (GC 4551) ([1]; Coagulase Negative Staphylococcus (GC 4551)): 16 µg/mL (≈ 11.4 µM)
MIC Coagulase Negative Staphylococcus (ID-3941) ([1]; Coagulase Negative Staphylococcus (ID-3941)): 4 µg/mL (≈ 2.84 µM)
MIC Staphylococcus aureus (ATCC 29213) ([1]; Staphylococcus aureus (ATCC 29213)): 16 µg/mL (≈ 11.4 µM)
MIC Staphylococcus aureus (GC 1131) ([1]; Staphylococcus aureus (GC 1131)): 8 µg/mL (≈ 5.68 µM)
MIC Staphylococcus aureus (GC 4541) ([1]; Staphylococcus aureus (GC 4541)): 8 µg/mL (≈ 5.68 µM)
MIC Staphylococcus aureus (GC 4542) ([1]; Staphylococcus aureus (GC 4542)): 8 µg/mL (≈ 5.68 µM)
MIC Staphylococcus aureus (GC 4544) ([1]; Staphylococcus aureus (GC 4544)): 16 µg/mL (≈ 11.4 µM)
MIC Staphylococcus aureus (GC 4545) ([1]; Staphylococcus aureus (GC 4545)): 8 µg/mL (≈ 5.68 µM)
MIC Staphylococcus aureus-SMITH (GC 4543) ([1]; Staphylococcus aureus-SMITH (GC 4543)): 8 µg/mL (≈ 5.68 µM)
MIC Streptococcus agalactiae (GC 4564) ([2]; Streptococcus agalactiae (GC 4564)): 4 µg/mL (≈ 2.84 µM)
MIC Streptococcus pneumoniae (GC 4565) ([2]; Streptococcus pneumoniae (GC 4565)): 1 µg/mL (≈ 0.71 µM)
MIC Streptococcus pyogenes (ID-3187) ([2]; Streptococcus pyogenes (ID-3187)): 2 µg/mL (≈ 1.42 µM)
MIC Enterococcus avium (GC 4558) ([3]; Enterococcus avium (GC 4558)): 64 µg/mL (≈ 45.4 µM)
MIC Enterococcus faecalis (ATCC 29212) ([3]; Enterococcus faecalis (ATCC 29212)): 64 µg/mL (≈ 45.4 µM)
MIC Enterococcus faecalis (GC 2242) ([3]; Enterococcus faecalis (GC 2242)): 32 µg/mL (≈ 22.7 µM)
MIC Enterococcus faecalis (GC 4552) ([3]; Enterococcus faecalis (GC 4552)): 64 µg/mL (≈ 45.4 µM)
MIC Enterococcus faecalis (GC 4553) ([3]; Enterococcus faecalis (GC 4553)): 64 µg/mL (≈ 45.4 µM)
MIC Enterococcus faecalis (GC 4554) ([3]; Enterococcus faecalis (GC 4554)): 64 µg/mL (≈ 45.4 µM)
MIC Enterococcus faecium (GC 2243) ([3]; Enterococcus faecium (GC 2243)): 64 µg/mL (≈ 45.4 µM)
MIC Enterococcus faecium (GC 4556) ([3]; Enterococcus faecium (GC 4556)): 64 µg/mL (≈ 45.4 µM)
MIC Enterococcus faecium (GC 4557) ([3]; Enterococcus faecium (GC 4557)): 4 µg/mL (≈ 2.84 µM)
MIC Escherichia coli (ATCC 25922) ([4]; Escherichia coli (ATCC 25922)): >64 µg/mL
MIC Escherichia coli (GC 4559) ([4]; Escherichia coli (GC 4559)): >64 µg/mL
MIC Escherichia coli (GC 4560) ([4]; Escherichia coli (GC 4560)): 2 µg/mL (≈ 1.42 µM)
Compound: CCCCCNC(=O)OCC1OC(OC2C(CO)OC(Oc3ccc(CC4NC(=O)C(C(C)c5ccccc5)NC(=O)CNC(=O)C(CO)NC(=O)C(C(O)C5CNC(=N)N5C5OC(CO)C(O)C(O)C5O)NC(=O)C(C(O)C5CNC(=N)N5)NC4=O)cc3)C(O)C2O)C(O)C(O)C1O (stereo not drawn) [Example 251b, γ-O-[(Pentylamino)carbonyl]-cyclo[glycyl-β-methylphenylalanyl-O-(4-O-hexopyranosylhexopyranosyl)tyrosyl-3-(2-iminoimidazolidin-4-yl)seryl-3-(3-hexopyranosyl-2-iminoimidazolidin-4-yl)serylseryl]]
MIC Staphylococcus haemolyticus (GC 4546) ([1]; Staphylococcus haemolyticus (GC 4546)): 8 µg/mL (≈ 5.68 µM)
